{"source": "patent US8563578B2", "about": "“Antitumor properties of NO modified protease inhibitors” (Onconox APS, priority 2008, dated 2013)", "key": {"B16 cells [1]": {"test_system": "B16 cells", "experiment": "LDH release assay, B16", "format": "cell-based", "conditions": "for LDH release (cytotoxicity, necrosis): 24 h, different doses", "method": "Reduction of 3-4,5-dimethylthiazol-2-yl)-2,5-diphenyltetrazolium bromide (MTT) to formazan depends on mitochondrial activity of cultured cells, absorption of crystal violet dye correlates with the number of adherent, live cells, while the release of cytosolic lactate dehydrogenase (LDH) indicates the disruption of membrane integrity caracteristic for necrotic cells. […] Mitohondrial-dependent production of formazan and intensity of absorbed crystal violet by adherent cells were assessed by an automated microplate reader at 570 nm, while the pyruvate-mediated conversion of 2,4-dinitrophenylhydrazine into visible hydrazone precipitate in LDH assay was measured at 492 nm. The % of cytotoxicity as indicated by LDH release was calculated as: (E−C)/(T−C)×100, where E is the experimental absorbance of cell cultures, C is the control absorbance of cell-free culture medium, and T is the absorbance corresponding to the maximal (100%) LDH release of Triton-lysed cells.\n(§1) FIG. 4. […] Results are calculated as indicated in materials and methods and presented as mean±SD from representative of three independent experiment (*p <0.05). […] After 24 h of cultivation without or with drugs, cells were stained with AO orange (B) or PI (C) and analyzed by flow cytometry. The data are presented as mean±SD from three independent experiments. *p<0.05, refers to untreated cultures. […] Cells were incubated with 18.8 μM of Sag or Saq-NO2 for 24 h. After that, the drugs were either removed or not from the cells and incubated for additional 24 h. Cell viability was determined by CV test after 24 and 48 h of incubation (right panels). The data are presented as mean±SD from three independent experiments. *p<0.05, refers to untreated cultures."}, "B16 cells [2]": {"test_system": "B16 cells", "experiment": "Cell cycle / apoptosis by propidium iodide flow cytometry, B16", "format": "cell-based, mouse", "conditions": "18.8 μM, 24 h", "method": "Apoptotic cell death was assessed by flow cytometry analysis of DNA fragmentation in cells stained with DNA-binding dye propidium iodide (PI). Following a 24 h incubation in 6-well plate, cells (2×10^5/well) were detached with trypsin, washed and fixed in 70% ethanol at 4° C. for 30 min. After washing in PBS, cells were resuspended in PBS containing 1 mg/ml RNase and propidium iodide (40 μg/ml) and kept at 37° C. in the dark for 30 min. Red fluorescence was analyzed with FACSCalibur flow cytometer (BD, Heidelberg, Germany) and distribution of cells among cell cycle phases was determined with Cell Quest Pro software (BD). Hypodiploid cells in sub-G0/G1 compartment were considered apoptotic.\nas §1"}, "Tumor cells": {"test_system": "Tumor cells", "experiment": "Viability recovery after drug withdrawal (CV test)", "format": "cell-based", "conditions": "18.8 μM for 24 h, drug removed, additional 24 h", "method": "Reduction of 3-4,5-dimethylthiazol-2-yl)-2,5-diphenyltetrazolium bromide (MTT) to formazan depends on mitochondrial activity of cultured cells, absorption of crystal violet dye correlates with the number of adherent, live cells, while the release of cytosolic lactate dehydrogenase (LDH) indicates the disruption of membrane integrity caracteristic for necrotic cells. The cells were seeded in flat-bottom 96-well plates in a final volume of 200 μl of culture medium containing different agents, and the assays were performed after 24 h incubation exactly as previously described (Mijatovic et al. 2004, Decker et al., 1998). Mitohondrial-dependent production of formazan and intensity of absorbed crystal violet by adherent cells were assessed by an automated microplate reader at 570 nm, while the pyruvate-mediated conversion of 2,4-dinitrophenylhydrazine into visible hydrazone precipitate in LDH assay was measured at 492 nm. The % of cytotoxicity as indicated by LDH release was calculated as: (E−C)/(T−C)×100, where E is the experimental absorbance of cell cultures, C is the control absorbance of cell-free culture medium, and T is the absorbance corresponding to the maximal (100%) LDH release of Triton-lysed cells.\nFIG. 4. […] Results are calculated as indicated in materials and methods and presented as mean±SD from representative of three independent experiment (*p <0.05). […]"}, "C6 cells": {"test_system": "C6 cells", "experiment": "Differentiation markers by cell-based ELISA, C6", "parameters": "species or system rat", "conditions": "18.8 μM, 24 h", "from_the_text": "A slightly modified method for cell-based ELISA (cELISA) by Versteeg (Versteed et al., 2000) was used to measure the expression of galactocerebroside, glial fibrilar acidic protein (GFAP), myelin basic protein (MBP), cyclin D3, p53 and p-AKT. Briefly, at the end of cultivation period cells were fixed in 4% paraformaldehyde, endogenous peroxydase was quenched with 1% H2O2 in PBS containing 0.1% Triton X-100 (PBST), and unspecific binding of antibodies blocked with PBST solution containing 10% FCS. Primary mouse monoclonal antibodies specific for rat/mouse p-Akt (1:200; Santa Cruz Biotechnology, Santa Cruz, Calif.), GFAP (1:200, BioYeda, Israel.), galactocerebroside (1:100; Boehringer Mannheim, Mannheim, Germany), MBP (1:100, Boehringer Mannheim, Mannheim, Germany), cyclin D3 (1:750, Santa Cruz Biotechnology, Santa Cruz, Calif.) and p53 (1:250, Santa Cruz Biotechnology, Santa Cruz, Calif.) were applied in PBST supplemented with 2% bovine serum albumin (PBSTB), followed by secondary peroxidase-conjugated goat anti-mouse IgG (1:2500 in PBSTB; GE Healthcare UK) for anti-GFAP and galactocerebroside or anti-rabbit IgG (1:2500, Healthcare UK) for anti-p-Akt, anti-cyclin D3 and anti-p53. All incubations were performed at 37° C. for 1 h. The absorbance at 450 nm was measured in an automated microplate reader 15 min after incubation with peroxydase substrate TMB and subsequently to addition of 0.1 M HCl. To facilitate comparison between treatments, the obtained absorbances were corrected for the cell number that was determined by crystal violet staining, as described in the original protocol. The results are presented as relative expression in comparison with the control value.\n(§2) FIG. 5. […] Cell morphology was assessed by light microscopy (A). Markers of cell differentiation of C6 and B16 cells, galactocerebroside, GFAP and MBP were determined by cELISA and melanin and tyrosinase activity were determined as described in material and methods (B). Cyclin D3 and p53 expression were evaluated by cELISA (C, upper panels), immunocytochemistry (C, middle panel) and Western blot (C, lower panel). The results were presented as mean±SD from three independent experiments. *p<0.05, refers to untreated cultures."}, "tyrosinase of B16 cells": {"test_system": "tyrosinase of B16 cells", "experiment": "Tyrosinase activity assay, B16", "format": "cell-based, mouse", "conditions": "18.8 μM, 24 h", "method": "(§3) Tyrosinase activity was determined by measuring the rate of oxidation of L-DOPA^34. Briefly, sub-confluent cultures in 6-well plate were lysed in 100 μl phosphate buffer pH 6.8-1% Triton X-100 and than centrifuged at 10000 rpm for 5 min. 40 μl of each extract was mixed with 100 μl of L-DOPA substrate solution (2 mg/ml). Enzymatic reaction was carried out at 37° C. and the absorbance at 570 nm was read every 10 min for at least 1 h. The final activity was corrected by the total amount of protein estimated by Bradford assay. For melanin determination cells were incubated in 6 well plate for 24 h, trypsinized, counted and than lysed in 100 μl of 1M NaOH. 400 μl of distilled water was added and samples were incubated at 60° C. for 1 h. Thereafter, absorbance of dissolved dye was measured at 492 nm.\nas §2"}, "B16 cells [3]": {"test_system": "B16 cells", "experiment": "Melanin determination, B16", "format": "cell-based, mouse", "conditions": "18.8 μM, 24 h", "method": "as §3, §2"}}}
{"smiles": "CC(C)(C)NC(=O)[C@@H]1C[C@@H]2CCCC[C@@H]2CN1C[C@@H](O)[C@H](Cc1ccccc1)NC(=O)[C@H](CC(N)=O)NC(=O)c1ccc2ccccc2n1", "note": "[Saq, Saquinavir, reference compound]", "values": [{"measurement": "LDH release (cytotoxicity, necrosis)", "setting": "B16 cells [1]", "value": "induced LDH release in both cell lines in a dose-dependent way"}, {"measurement": "cell cycle distribution", "setting": "B16 cells [2]", "value": "did not show considerably different distribution from control"}, {"measurement": "recovery of viability after drug withdrawal", "setting": "Tumor cells", "value": "mainly restored the viability"}, {"measurement": "expression of GFAP", "setting": "C6 cells", "value": "decreased or unchanged"}, {"measurement": "expression of galactocerebroside", "setting": "C6 cells", "value": "strongly up regulated"}, {"measurement": "tyrosinase activity", "setting": "tyrosinase of B16 cells", "value": "increased"}, {"measurement": "melanin content", "setting": "B16 cells [3]", "value": "increased"}]}
{"smiles": "CC(C)(C)NC(=O)[C@@H]1C[C@@H]2CCCC[C@@H]2CN1C[C@@H](O[N+](=O)[O-])[C@H](Cc1ccccc1)NC(=O)[C@H](CC(N)=O)NC(=O)c1ccc2ccccc2n1", "note": "[Saq-NO2, nitric ester of Saquinavir]", "values": [{"measurement": "LDH release (cytotoxicity, necrosis)", "setting": "B16 cells [1]", "value": "induced significant cytoxicity even at lowest dose tested"}, {"measurement": "LDH release (cytotoxicity, necrosis)", "setting": "B16 cells [1]; listed as Saq-NO", "value": "dose-dependent LDH release was detected upon all tested doses"}, {"measurement": "cytotoxicity at 18.8 µM", "setting": "B16 cells [1]; Mus musculus, 18.8 μM, 18 h of exposure, control 2.3%", "value": 6.2, "unit": "%"}, {"measurement": "apoptosis", "setting": "B16 cells [2]", "value": "statistically significant apoptosis"}, {"measurement": "cell cycle distribution", "setting": "B16 cells [2]", "value": "accumulation of cells in G2/M phase"}, {"measurement": "recovery of viability after drug withdrawal", "setting": "Tumor cells", "value": "very mild recovering"}, {"measurement": "expression of GFAP", "setting": "C6 cells", "value": "decreased or unchanged"}, {"measurement": "expression of galactocerebroside", "setting": "C6 cells", "value": "strongly up regulated"}, {"measurement": "tyrosinase activity", "setting": "tyrosinase of B16 cells", "value": "slight but significant decrease"}, {"measurement": "melanin content", "setting": "B16 cells [3]", "value": "unchanged"}]}
